Patent US8940477B2 (priority 2007, dated 2015)
“Also recorded” adds a separate entry of the source.

Biological target: BoNT/A (Clostridium botulinum, UniProt P0DPI1)
Type: cell-based

BoNT/A, sequence (P0DPI1 2-448 limits assumed): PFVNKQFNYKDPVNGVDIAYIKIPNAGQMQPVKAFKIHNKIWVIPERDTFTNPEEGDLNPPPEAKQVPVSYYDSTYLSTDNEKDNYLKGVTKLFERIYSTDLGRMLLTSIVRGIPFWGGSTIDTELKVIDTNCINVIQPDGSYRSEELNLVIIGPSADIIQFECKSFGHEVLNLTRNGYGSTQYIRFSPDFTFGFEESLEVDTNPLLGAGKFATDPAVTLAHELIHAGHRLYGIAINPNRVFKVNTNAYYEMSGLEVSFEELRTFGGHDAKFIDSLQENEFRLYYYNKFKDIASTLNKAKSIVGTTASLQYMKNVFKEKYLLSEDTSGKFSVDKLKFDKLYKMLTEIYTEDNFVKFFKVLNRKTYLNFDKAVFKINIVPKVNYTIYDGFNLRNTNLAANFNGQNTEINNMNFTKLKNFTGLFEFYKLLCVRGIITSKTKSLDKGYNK
BoNT/A, sequence (P0DPI1 449-1296 limits assumed): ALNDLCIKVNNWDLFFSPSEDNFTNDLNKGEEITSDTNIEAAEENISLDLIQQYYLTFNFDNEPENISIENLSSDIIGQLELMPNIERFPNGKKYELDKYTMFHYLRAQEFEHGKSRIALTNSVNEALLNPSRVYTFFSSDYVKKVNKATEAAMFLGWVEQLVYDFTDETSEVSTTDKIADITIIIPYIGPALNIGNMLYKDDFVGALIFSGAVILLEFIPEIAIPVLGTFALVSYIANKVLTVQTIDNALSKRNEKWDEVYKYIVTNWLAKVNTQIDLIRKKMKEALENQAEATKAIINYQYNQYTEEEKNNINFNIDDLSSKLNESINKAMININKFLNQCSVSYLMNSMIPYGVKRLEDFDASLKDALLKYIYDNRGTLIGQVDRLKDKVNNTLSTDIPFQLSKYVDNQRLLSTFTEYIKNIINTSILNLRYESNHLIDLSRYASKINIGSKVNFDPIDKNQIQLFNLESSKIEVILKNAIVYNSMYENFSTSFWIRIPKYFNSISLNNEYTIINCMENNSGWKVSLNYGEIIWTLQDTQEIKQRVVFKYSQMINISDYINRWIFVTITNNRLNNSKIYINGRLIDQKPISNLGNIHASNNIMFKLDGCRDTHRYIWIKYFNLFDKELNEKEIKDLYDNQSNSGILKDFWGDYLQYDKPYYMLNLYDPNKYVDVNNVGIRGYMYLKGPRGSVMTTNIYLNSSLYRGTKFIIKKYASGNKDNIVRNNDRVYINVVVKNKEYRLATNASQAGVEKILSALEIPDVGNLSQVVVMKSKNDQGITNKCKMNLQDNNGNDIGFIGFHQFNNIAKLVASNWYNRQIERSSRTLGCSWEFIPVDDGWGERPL

Question: How did the “SNAP25 cleavage in presence of Toosendanin” value turn out when `CC(=O)O[C@@H]1C[C@H](O)[C@@]23CO[C@@H](O)[C@]1(C)[C@@H]2C[C@@H](O)[C@]1(C)[C@@H]3C(=O)[C@H](OC(C)=O)[C@@]2(C)[C@H](c3ccoc3)C[C@H]3O[C@]321` [Toosendanin] was run?
Answer: only full-length SNAP25 was detected; also recorded: protects against BoNT/A induced SNAP25 cleavage
